Numbers after ± are expanded uncertainties.
Settings: 101.33 kPa, Liquid

| mass density (283.15 K) [kg/m3] | speed of sound (283.15 K) [m/s] | mass density (298.15 K) [kg/m3] | speed of sound (298.15 K) [m/s] | mass density (313.15 K) [kg/m3] | speed of sound (313.15 K) [m/s] | Structure (SMILES) |
| --- | --- | --- | --- | --- | --- | --- |
| 811.48 ± 0.59 | 1257.9 ± 3.5 | 799.66 ± 0.6 | 1206 ± 3.4 | 787.76 ± 0.61 | 1155.1 ± 3.3 | CCCO [propan-1-ol] |
| 797.94 ± 0.45 | 1195.2 ± 3.2 | 785.12 ± 0.47 | 1143.3 ± 3.1 | 772.53 ± 0.49 | 1093.8 ± 3 | CCO [ethanol] |
| 879.07 ± 0.55 | 1356.8 ± 3.7 | 866.97 ± 0.55 | 1298.7 ± 3.5 | 855.5 ± 0.56 | 1232.8 ± 3.4 | C=C1CCC2CC1C2(C)C (stereo not drawn) [β-pinene] |

— the NIST ThermoML archive (doi:10.1021/je050006+)
